Test results taken from patent publication US12084445B2, “Broad-spectrum carbapenems” (VenatoRx Pharmaceuticals, Inc., priority 2018, dated 2024).
Like-named read-outs stand apart in the source and are kept apart here.

Experiments:
Format in all cases: cell-based
[1] = system: S. aureus ATCC 33591 (methicillin-resistant); experiment: broth microdilution MIC assay, S. aureus ATCC 33591; conditions: Staphylococcus aureus
Procedure, shortened: (§1)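 MIC = lowest compound concentration with no visible growth after 16-20 h at 37 °C. Inoculum 5×10^5 CFU/mL from 3-5 h Mueller-Hinton broth cultures standardized by OD600; compounds tested as 2-fold serial dilutions per CLSI.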

[2] = system: E. coli ATCC 25922 (wild-type/QC strain); experiment: broth microdilution MIC assay, E. coli ATCC 25922; conditions: Escherichia coli, ATCC25922, E. coli 25922, read-out: E. coli 25922 MIC
Procedure, shortened: as §1

[3] = system: P. aeruginosa ATCC 27853 (wild-type/QC strain); experiment: broth microdilution MIC assay, P. aeruginosa ATCC 27853; conditions: Pseudomonas aeruginosa, ATCC27853, P. aeruginosa 27853, read-out: P. aeruginosa 27853 MIC
Procedure, shortened: as §1

[4] = system: P. aeruginosa 35151 (hyper-permeable strain); experiment: broth microdilution MIC assay, P. aeruginosa 35151; conditions: Pseudomonas aeruginosa, read-out: P. aeruginosa 35151 MIC
Procedure, shortened: as §1

S. aureus USA600 = experiment: broth microdilution MIC assay, S. aureus USA 600; conditions: Staphylococcus aureus; Table 4; S. aureus USA600; read-out: S. aureus USA600 MIC
Procedure, shortened: as §1

S. aureus USA 300 = experiment: broth microdilution MIC assay, S. aureus USA 300; conditions: Staphylococcus aureus; Table 4; S. aureus USA300; read-out: S. aureus USA300 MIC
Procedure, shortened: as §1

[5] = system: P. aeruginosa ΔmexAB-OprM (an efflux pump knockout); experiment: broth microdilution MIC assay, P. aeruginosa ΔmexAB-OprM; conditions: Pseudomonas aeruginosa, 20 h, read-out: P. aeruginosa ΔmexAB-OprM MIC
Procedure, shortened: as §1

[6] = system: clinical isolate P. aeruginosa PA 8; experiment: broth microdilution MIC assay, P. aeruginosa PA 8; conditions: Pseudomonas aeruginosa, P. aeruginosa PA8
Experimental: (§2) To determine the ability of test compounds to potentiate the inhibition of the growth of bacterial strains, classic cell-based broth microdilution MIC assays were employed. MIC assays are performed according to CLSI methods except where otherwise noted (CLSI, 2011 and CLSI, 2009). The reference strains S. aureus ATCC 29213 (methicillin sensitive), S. aureus ATCC 33591 (methicillin-resistant), E. coli ATCC 25922 (wild-type/QC strain), P. aeruginosa ATCC 27853 (wild-type/QC strain), and the clinical isolate P. aeruginosa PA 8 were used to determine the ability of the exemplary carbapenem compounds to inhibit bacterial growth. An expanded panel of methicillin resistance S. aureus (MRSA) and Pseudomonas was also used to determine the ability of exemplary carbapenem compounds to inhibit bacterial growth across a broader representation of those species. To determine activity in MRSA and in addition to S. aureus ATCC 33591, S. aureus USA 300, USA 400 and USA 600, some of the most common clones found to cause human infection, were also used. To further gauge the impact on the carbapenem compounds due to various resistance mechanisms in Pseudomonas, the following strains were included: P. aeruginosa 35151 (hyper-permeable strain), P. aeruginosa AmexAB-OprM (an efflux pump knockout), and P. aeruginosa PA 3 (a clinical isolate of reduced carbapenem susceptibility). Briefly, cryo-preserved bacterial cultures of clinical strains are streaked for isolation on appropriate agar medium, in this case Mueller Hinton II agar. Following incubation to allow formation of colonies, these plates are sealed with parafilm and stored refrigerated for up to two weeks. For preparation of assay inocula and to ensure low variability, at least 5 colonies are picked from the agar plates with an inoculating loop and aseptically transferred to a culture tube containing 3 mL of Mueller-Hinton Broth (supplemented with divalent cations to required levels based on Manufacturers' specification). The broth culture is grown for 3-5 hours at 37° C. with shaking at 200 rpm. Meanwhile, 2-fold serial dilutions of test compounds are conducted in a 96 well plate with a final volume of 75 μL per well at 2-fold the final desired concentration. After the dilution plates are set up the growing cultures are then diluted in a cuvette containing MH II broth and the optical density is measured at 600 nm. Inocula are diluted such that 75 μL of this culture in Mueller-Hinton Broth results in a starting bacterial concentration of 5×10^5 CFU/mL when added to the dilution plates. The plates are incubated 16-20 hours at 37° C. The MIC is read visually as the lowest concentration well with no bacterial growth.
(§3) Representative results are shown in Tables 3, 4, and 5 where A represents an MIC>32 μg/mL, B represents an MIC between 8 and 32 μg/mL inclusive, C represents an MIC between 1 and 4 μg/mL inclusive, and D represents an MIC of <1 μg/mL. NT=Not Tested.

[7] = system: P. aeruginosa PA 3 (a clinical isolate of reduced carbapenem susceptibility); experiment: broth microdilution MIC assay, P. aeruginosa PA 3; conditions: Pseudomonas aeruginosa; Table 5; P. aeruginosa PA3
Experimental: as §2, §3

[8] = system: S. aureus ATCC 29213 (methicillin sensitive); experiment: broth microdilution MIC assay, S. aureus ATCC 29213; conditions: Staphylococcus aureus, ATCC 29213 / MSSA; Table 3; S. aureus 29213 (MSSA); read-out: S. aureus 29213 (MSSA) MIC
Experimental: as §2, §3

[9] = ATCC 33591 / MRSA, Table 3, S. aureus 33591 (MRSA), read-out: S. aureus 33591 (MRSA) MIC

SMILES	MIC [1, 9]	MIC ([2]; Table 3)	MIC ([3]; Table 3)	MIC ([6]; Table 3)	MIC [8]	MIC ([1]; ATCC33591, Table 4, S. aureus 33591, read-out: S. aureus 33591 MIC)	MIC ([2]; Table 4)	MIC ([3]; Table 5)	MIC [4]	MIC (S. aureus USA600)	MIC (S. aureus USA 300)	MIC [5]	MIC ([6]; Table 5)	MIC [7]
C[C@@H](O)[C@H]1C(=O)N2C(C(=O)O)=C(S[C@@H]3CCCN(CC4CCNCC4)C3)[C@H](C)[C@H]12 [Example 43, (4R,5S,6S)-6-((R)-1-hydroxyethyl)-4-methyl-7-oxo-3-(((R)-1-(piperidin-4-ylmethyl)piperidin-3-yl)thio)-1-azabicyclo[3.2.0]hept-2-ene-2-carboxylic acid]						8 to 32 µg/mL	< 1 µg/mL	8 to 32 µg/mL	< 1 µg/mL	1 to 4 µg/mL	1 to 4 µg/mL	8 to 32 µg/mL	> 32 µg/mL	> 32 µg/mL
C[C@@H](O)[C@H]1C(=O)N2C(C(=O)O)=C(S[C@@H]3CCN(Cc4ccncc4)C3)[C@H](C)[C@H]12 [Example 9, (4R,5S,6S)-6-((R)-1-hydroxyethyl)-4-methyl-7-oxo-3-(((R)-1-(pyridin-4-ylmethyl)pyrrolidin-3-yl)thio)-1-azabicyclo[3.2.0]hept-2-ene-2-carboxylic acid]	8 to 32 µg/mL	< 1 µg/mL	8 to 32 µg/mL	8 to 32 µg/mL	< 1 µg/mL									
CN[C@H]1CC[C@@H](CN2CC[C@@H](SC3=C(C(=O)O)N4C(=O)[C@H]([C@@H](C)O)[C@H]4[C@H]3C)C2)CC1 [Example 22, (4R,5S,6S)-6-((R)-1-hydroxyethyl)-4-methyl-3-(((R)-1-(((1s,4S)-4-(methylamino)cyclohexyl)methyl)pyrrolidin-3-yl)thio)-7-oxo-1-azabicyclo[3.2.0]hept-2-ene-2-carboxylic acid]	8 to 32 µg/mL	< 1 µg/mL	1 to 4 µg/mL	1 to 4 µg/mL	1 to 4 µg/mL									
C[C@@H](O)[C@H]1C(=O)N2C(C(=O)O)=C(S[C@@H]3CCN(C4CCCNC4)C3)[C@H](C)[C@H]12 (stereo partly drawn) [Example 4, (4R,5S,6S)-6-((R)-1-hydroxyethyl)-4-methyl-7-oxo-3-(((3R)-1-(piperidin-3-yl)pyrrolidin-3-yl)thio)-1-azabicyclo[3.2.0]hept-2-ene-2-carboxylic acid]	8 to 32 µg/mL	< 1 µg/mL	1 to 4 µg/mL	8 to 32 µg/mL	< 1 µg/mL									
C[C@@H](O)[C@H]1C(=O)N2C(C(=O)O)=C(S[C@@H]3CCN(C4CCNC4)C3)[C@H](C)[C@H]12 (stereo partly drawn) [Example 6, (4R,5S,6S)-3-(((3R)-[1,3′-bipyrrolidin]-3-yl)thio)-6-((R)-1-hydroxyethyl)-4-methyl-7-oxo-1-azabicyclo[3.2.0]hept-2-ene-2-carboxylic acid]	8 to 32 µg/mL	< 1 µg/mL	1 to 4 µg/mL	1 to 4 µg/mL	< 1 µg/mL									
C[C@@H](O)[C@H]1C(=O)N2C(C(=O)O)=C(S[C@@H]3CCN(C[C@H]4CCCN4)C3)[C@H](C)[C@H]12 [Example 8, (4R,5S,6S)-6-((R)-1-hydroxyethyl)-4-methyl-7-oxo-3-(((R)-1-(((R)-pyrrolidin-2-yl)methyl)pyrrolidin-3-yl)thio)-1-azabicyclo[3.2.0]hept-2-ene-2-carboxylic acid]	1 to 4 µg/mL	< 1 µg/mL	8 to 32 µg/mL	8 to 32 µg/mL	< 1 µg/mL									
C[C@@H](O)[C@H]1C(=O)N2C(C(=O)O)=C(S[C@@H]3CCN(CC4(C)CCNCC4)C3)[C@H](C)[C@H]12 [Example 15, (4R,5S,6S)-6-((R)-1-hydroxyethyl)-4-methyl-3-(((R)-1-((4-methylpiperidin-4-yl)methyl)pyrrolidin-3-yl)thio)-7-oxo-1-azabicyclo[3.2.0]hept-2-ene-2-carboxylic acid]	8 to 32 µg/mL	< 1 µg/mL	8 to 32 µg/mL		< 1 µg/mL									
C[C@@H](O)[C@H]1C(=O)N2C(C(=O)O)=C(S[C@H]3CCN(C4CCNCC4)C3)[C@H](C)[C@H]12 [Example 2, (4R,5S,6S)-6-((R)-1-hydroxyethyl)-4-methyl-7-oxo-3-(((S)-1-(piperidin-4-yl)pyrrolidin-3-yl)thio)-1-azabicyclo[3.2.0]hept-2-ene-2-carboxylic acid]	8 to 32 µg/mL	< 1 µg/mL	1 to 4 µg/mL	> 32 µg/mL	< 1 µg/mL									

Second part, led by results:

MIC [1, 9]	MIC ([2]; Table 3)	MIC ([3]; Table 3)	MIC ([6]; Table 3)	MIC [8]	SMILES	MIC ([1]; ATCC33591, Table 4, S. aureus 33591, read-out: S. aureus 33591 MIC)	MIC ([2]; Table 4)	MIC ([3]; Table 5)	MIC [4]	MIC (S. aureus USA600)	MIC (S. aureus USA 300)	MIC [5]	MIC ([6]; Table 5)	MIC [7]
8 to 32 µg/mL	< 1 µg/mL	1 to 4 µg/mL	1 to 4 µg/mL	1 to 4 µg/mL	CNCc1ccc(CN2CC[C@@H](SC3=C(C(=O)O)N4C(=O)[C@H]([C@@H](C)O)[C@H]4[C@H]3C)C2)cc1 [Example 19, (4R,5S,6S)-6-((R)-1-hydroxyethyl)-4-methyl-3-(((R)-1-(4-((methylamino)methyl)benzyl)pyrrolidin-3-yl)thio)-7-oxo-1-azabicyclo[3.2.0]hept-2-ene-2-carboxylic acid]									
8 to 32 µg/mL	< 1 µg/mL	1 to 4 µg/mL	8 to 32 µg/mL	1 to 4 µg/mL	C[C@@H](O)[C@H]1C(=O)N2C(C(=O)O)=C(S[C@@H]3CCN([C@H]4CC[C@H](N)CC4)C3)[C@H](C)[C@H]12 [Example 24, (4R,5S,6S)-3-(((R)-1-((1s,4S)-4-aminocyclohexyl)pyrrolidin-3-yl)thio)-6-((R)-1-hydroxyethyl)-4-methyl-7-oxo-1-azabicyclo[3.2.0]hept-2-ene-2-carboxylic acid]									
1 to 4 µg/mL	< 1 µg/mL	1 to 4 µg/mL	1 to 4 µg/mL	< 1 µg/mL	C[C@@H](O)[C@H]1C(=O)N2C(C(=O)O)=C(S[C@@H]3CCN(CCC4CCNCC4)C3)[C@H](C)[C@H]12 [Example 11, (4R,5S,6S)-6-((R)-1-hydroxyethyl)-4-methyl-7-oxo-3-(((R)-1-(2-(piperidin-4-yl)ethyl)pyrrolidin-3-yl)thio)-1-azabicyclo[3.2.0]hept-2-ene-2-carboxylic acid]									
1 to 4 µg/mL	< 1 µg/mL	1 to 4 µg/mL	1 to 4 µg/mL	< 1 µg/mL	C[C@@H](O)[C@H]1C(=O)N2C(C(=O)O)=C(S[C@@H]3CCN(CC4CCNCC4)C3)[C@H](C)[C@H]12 [Example 7, (4R,5S,6S)-6-((R)-1-hydroxyethyl)-4-methyl-7-oxo-3-(((R)-1-(piperidin-4-ylmethyl)pyrrolidin-3-yl)thio)-1-azabicyclo[3.2.0]hept-2-ene-2-carboxylic acid]									
8 to 32 µg/mL	< 1 µg/mL	1 to 4 µg/mL		< 1 µg/mL	C[C@@H](O)[C@H]1C(=O)N2C(C(=O)O)=C(S[C@@H]3C[C@@H](CO)N(C4CCNCC4)C3)[C@H](C)[C@H]12 [Example 5, (4R,5S,6S)-6-((R)-1-hydroxyethyl)-3-(((3R,5S)-5-(hydroxymethyl)-1-(piperidin-4-yl)pyrrolidin-3-yl)thio)-4-methyl-7-oxo-1-azabicyclo[3.2.0]hept-2-ene-2-carboxylic acid]									
